Reference: patent US20230271954A1 (Gossamer Bio Services, Inc., priority 2020, published 2023)

Assays:
[1] = target: DGKα (Homo sapiens, UniProt P23743); experiment: DGKα biochemical assay (ADP-Glo); conditions: read-out: DGK α IC50
Protocol: (§1) Compounds of the present invention were prepared into 10 mM DMSO solution and 10 nL of stock was transferred into 384 plates (Optiplate 384 plate) using Echo550. DMSO was used as high control, and ATP substrate buffer was used as a low control. A 1× enzyme assay buffer was prepared (Hepes, pH 7.0 25 mM, BSA 0.05%, Triton-X100 0.002%, CaCl2) 1 μM, MgCl2 10 mM, DTT 2 mM). […] OAG (1-oleoyl-2-acetyl-sn-glycerol, 25 mg/ml, Avanti 8001000) and PS (10 mg/ml, Avanti 840032P) were mixed at the ratio of 1:2. A 1× substrate solution was prepared with 1× assay buffer by 100-fold dilution. The substrate solution was sonicated on ice for 1 min. The pure ATP was added to the substrate solution (DGKα:400 μM). 5 μL of the enzyme solution were added to the 384 well plate, and the plate was spun for 1 min at 1000 rpm and incubated for 30 mins at RT. 5 μL of 1× substrate solution were added to the 384 well plate, the plate was spun and then incubated for 45 mins at RT. 10 μL ADP-Glo […] was added to stop the assay. After 60 mins at RT, 20 μL ADP-Glo Detection buffer was added as the final step. Plate was read after 45 min incubation at RT.
(§2) Data analysis was performed by calculating the […] using following the formula:
(§3) [formula] • High control (Hc): DMSO/DGKα(DGKζ)/Substrate/ATP/ADP-Glo • Low Control (Lc): ATP/ADP-Glo

[2] = target: T1, DGKζ (Homo sapiens, UniProt Q13574); experiment: DGKζ biochemical assay (ADP-Glo); conditions: read-out: DGK ζ IC50
T1 construct: purchased Carna 12-110
Protocol: as §1, §2, §3

Chain of DGKα (P23743 whole entry): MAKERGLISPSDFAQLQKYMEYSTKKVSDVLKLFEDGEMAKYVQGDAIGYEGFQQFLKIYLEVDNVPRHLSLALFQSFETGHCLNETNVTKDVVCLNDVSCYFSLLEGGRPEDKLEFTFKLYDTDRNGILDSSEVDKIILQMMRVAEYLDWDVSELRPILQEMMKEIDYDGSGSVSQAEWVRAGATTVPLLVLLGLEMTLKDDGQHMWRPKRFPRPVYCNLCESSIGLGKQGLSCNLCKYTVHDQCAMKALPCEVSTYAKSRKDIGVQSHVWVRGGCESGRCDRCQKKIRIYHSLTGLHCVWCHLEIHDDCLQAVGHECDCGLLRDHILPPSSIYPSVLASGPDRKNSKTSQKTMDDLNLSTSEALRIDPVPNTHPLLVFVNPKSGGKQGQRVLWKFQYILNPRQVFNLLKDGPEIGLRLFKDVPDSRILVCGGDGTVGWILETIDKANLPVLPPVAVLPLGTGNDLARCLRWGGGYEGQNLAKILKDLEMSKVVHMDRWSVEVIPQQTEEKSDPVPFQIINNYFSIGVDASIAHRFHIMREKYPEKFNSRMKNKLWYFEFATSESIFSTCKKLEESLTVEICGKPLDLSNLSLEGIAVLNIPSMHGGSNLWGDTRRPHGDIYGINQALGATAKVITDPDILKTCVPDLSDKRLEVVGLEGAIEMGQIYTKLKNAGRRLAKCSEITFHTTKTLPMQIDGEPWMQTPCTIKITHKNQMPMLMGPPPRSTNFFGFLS
T1 sequence (Q13574 1-929 isoform Q13574-4): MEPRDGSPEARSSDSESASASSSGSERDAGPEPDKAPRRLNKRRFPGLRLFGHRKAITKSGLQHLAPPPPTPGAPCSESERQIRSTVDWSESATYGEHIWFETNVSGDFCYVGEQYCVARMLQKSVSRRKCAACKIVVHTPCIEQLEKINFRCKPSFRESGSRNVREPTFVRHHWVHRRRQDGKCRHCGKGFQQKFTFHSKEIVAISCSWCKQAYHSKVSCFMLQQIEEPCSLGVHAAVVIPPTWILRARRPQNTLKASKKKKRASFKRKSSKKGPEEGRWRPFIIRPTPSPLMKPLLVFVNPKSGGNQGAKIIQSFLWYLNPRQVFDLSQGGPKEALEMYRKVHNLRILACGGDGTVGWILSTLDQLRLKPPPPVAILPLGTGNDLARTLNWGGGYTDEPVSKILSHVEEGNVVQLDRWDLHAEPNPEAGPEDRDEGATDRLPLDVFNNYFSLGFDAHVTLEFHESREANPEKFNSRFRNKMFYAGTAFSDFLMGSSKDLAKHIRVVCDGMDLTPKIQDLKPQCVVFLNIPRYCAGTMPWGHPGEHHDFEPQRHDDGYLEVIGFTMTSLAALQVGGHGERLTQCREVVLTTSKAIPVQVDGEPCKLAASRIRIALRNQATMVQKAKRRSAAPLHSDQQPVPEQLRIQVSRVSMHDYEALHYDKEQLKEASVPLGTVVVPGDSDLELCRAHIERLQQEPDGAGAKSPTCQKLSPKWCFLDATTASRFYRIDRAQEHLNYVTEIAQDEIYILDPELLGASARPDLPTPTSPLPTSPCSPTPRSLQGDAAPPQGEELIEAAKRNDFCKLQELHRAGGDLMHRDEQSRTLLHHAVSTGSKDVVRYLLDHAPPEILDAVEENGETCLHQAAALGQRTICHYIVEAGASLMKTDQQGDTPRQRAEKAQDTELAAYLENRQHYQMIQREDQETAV

Structure (SMILES)	IC50 [1]	IC50 [2]
Cn1c(=O)c(C#N)c(N(C)[C@H]2CC[C@@H](N(CC3CC3)c3ccc4c(c3)C(=O)NC4)CC2)c2nc(C#N)ccc21 [Example 202, cis-8-((-4-((cyclopropylmethyl)(3-oxoisoindolin-5-yl)amino)cyclohexyl)(methyl)amino)-5-methyl-6-oxo-5,6-dihydro-1,5-naphthyridine-2,7-dicarbonitrile]	≥ 1000 nM	≥ 1000 nM
Cn1c(=O)c(C#N)c(N(C)[C@H]2CC[C@@H](N(CC3CCC3)c3cccc4c3OCO4)CC2)c2nc(C#N)ccc21 [Example 109, cis-8-((-4-(benzo[d][1,3]dioxol-4-yl(cyclobutylmethyl)amino)cyclohexyl)(methyl)amino)-5-methyl-6-oxo-5,6-dihydro-1,5-naphthyridine-2,7-dicarbonitrile]	10 to 100 nM	10 to 100 nM
Cn1c(=O)c(C#N)c(N(C)[C@H]2CC[C@@H](N(CC3CC3)c3ccc(Cl)cc3)CC2)c2ncccc21 [Example 8, cis-4-((4-((4-chlorophenyl)(cyclopropylmethyl)amino)cyclohexyl)(methyl)amino)-1-methyl-2-oxo-1,2-dihydro-1,5-naphthyridine-3-carbonitrile]	10 to 100 nM	≥ 1000 nM
Cc1cc(F)ccc1N(C[C@@H]1CCOC1)[C@H]1CC[C@H](N(C)c2c(C#N)c(=O)n(C)c3ccc(C#N)nc23)CC1 [Example 166, trans-8-((-4-((4-fluoro-2-methylphenyl)(((S)-tetrahydrofuran-3-yl)methyl)amino)cyclohexyl) (methyl)amino)-5-methyl-6-oxo-5,6-dihydro-1,5-naphthyridine-2,7-dicarbonitrile]	≥ 1000 nM	100 to 1000 nM
Cc1cc(N(CC2CCOC2)[C@H]2CC[C@@H](N(C)c3c(C#N)c(=O)n(C)c4ccc(C#N)nc34)CC2)ccc1F (stereo partly drawn) [Example 159, cis-8-((-4-((4-fluoro-3-methylphenyl) ((tetrahydrofuran-3-yl)methyl)amino)cyclohexyl) (methyl)amino)-5-methyl-6-oxo-5,6-dihydro-1,5-naphthyridine-2,7-dicarbonitrile]	10 to 100 nM	10 to 100 nM
Cn1c(=O)c(C#N)c(N(C)[C@H]2CC[C@@H](N(c3ccc(F)cc3)C3CC3)CC2)c2nc(Cl)ccc21 [Example 51, cis-6-chloro-4-((4-(cyclopropyl(4-fluorophenyl)amino)cyclohexyl)(methyl)amino)-1-methyl-2-oxo-1,2-dihydro-1,5-naphthyridine-3-carbonitrile]	< 10 nM	100 to 1000 nM
Cn1c(=O)cc(N(C)[C@H]2CC[C@@H](N(CC3CC3)c3cccc(F)c3)CC2)c2nc(C#N)ccc21 [Example 24, cis-8-((4-((cyclopropylmethyl)(3-fluorophenyl)amino)cyclohexyl)(methyl)amino)-5-methyl-6-oxo-5,6-dihydro-1,5-naphthyridine-2-carbonitrile]	10 to 100 nM	≥ 1000 nM
COc1cc(N(C2CC2)[C@H]2CC[C@@H](N(C)c3cc(=O)n(C)c4ccc(C#N)nc34)CC2)ccc1F [Example 83]	100 to 1000 nM	100 to 1000 nM
Cn1c(=O)c(C#N)c(N(C)[C@H]2CC[C@@H](N(CC3COCCO3)c3ccc4c(c3)OCCO4)CC2)c2nc(C#N)ccc21 (stereo partly drawn) [Example 182, cis-8-((4-(((1,4-dioxan-2-yl)methyl)(2,3-dihydrobenzo[b][1,4]dioxin-6-yl)amino)cyclohexyl) (methyl)amino)-5-methyl-6-oxo-5,6-dihydro-1,5-naphthyridine-2,7-dicarbonitrile]	≥ 1000 nM	< 10 nM
COc1cccc(N(CC2CC2)[C@H]2CC[C@@H](N(C)c3c(C#N)c(=O)n(C)c4ccc(C#N)nc34)CC2)c1 [Example 28, cis-8-((4-((cyclopropylmethyl)(3-methoxyphenyl)amino)cyclohexyl)(methyl)amino)-5-methyl-6-oxo-5,6-dihydro-1,5-naphthyridine-2,7-dicarbonitrile]	10 to 100 nM	100 to 1000 nM
COc1cc(F)ccc1N(CC1CC1)[C@H]1CC[C@@H](N(C)c2c(C#N)c(=O)n(C)c3cccnc23)CC1 [Example 9, cis-4-((4-((cyclopropylmethyl)(4-fluoro-2-methoxyphenyl)amino)cyclohexyl)(methyl)amino)-1-methyl-2-oxo-1,2-dihydro-1,5-naphthyridine-3-carbonitrile]	≥ 1000 nM	≥ 1000 nM
Cc1cc(F)ccc1N(CC1CCCCO1)[C@H]1CC[C@H](N(C)c2c(C#N)c(=O)n(C)c3ccc(C#N)nc23)CC1 (stereo partly drawn) [Example 136, trans-8-((-4-((4-fluoro-2-methylphenyl)((tetrahydro-2H-pyran-2-yl)methyl)amino)cyclohexyl)(methyl)amino)-5-methyl-6-oxo-5,6-dihydro-1,5-naphthyridine-2,7-dicarbonitrile]	100 to 1000 nM	10 to 100 nM
CN(c1cc(=O)n(C)c2ccc(C#N)nc12)C1CCC(N(CC2CCC2)c2ccc(CN3CCOCC3)cc2)CC1 (single isomer, unassigned) [Example 189, (cis or trans)-8-((4-((cyclobutylmethyl)(4-(morpholinomethyl)phenyl)amino)cyclohexyl) (methyl)amino)-5-methyl-6-oxo-5,6-dihydro-1,5-naphthyridine-2-carbonitrile]	≥ 1000 nM	≥ 1000 nM
Cn1c(=O)c(C#N)c(N(C)[C@H]2CC[C@H](N(c3ccc(F)cc3)C3CCC3)CC2)c2nc(Cl)ccc21 [Example 20, trans-6-chloro-4-((4-(cyclobutyl(4-fluorophenyl)amino)cyclohexyl)(methyl)amino)-1-methyl-2-oxo-1,2-dihydro-1,5-naphthyridine-3-carbonitrile]	10 to 100 nM	≥ 1000 nM
Cn1c(=O)cc(N(C)[C@H]2CC[C@@H](N(CC3CC3)c3ccc4c(c3)OCO4)CC2)c2nc(C#N)ccc21 [Example 75]	10 to 100 nM	≥ 1000 nM
Cn1c(=O)cc(N(C)[C@H]2CC[C@H](N(CC3COC3)c3ccc(F)cc3O)CC2)c2nc(C#N)ccc21 [Example 3BB, trans-8-((4-((4-fluoro-2-hydroxyphenyl)(oxetan-3-ylmethyl)amino)cyclohexyl)(methyl)amino)-5-methyl-6-oxo-5,6-dihydro-1,5-naphthyridine-2-carbonitrile]	≥ 1000 nM	≥ 1000 nM
Cn1c(=O)c(C#N)c(N(C)[C@H]2CC[C@@H](N(CC3CCC3)c3ccc(F)cc3)CC2)c2nc(C#N)ccc21 [Example 42, cis-8-((-4-((cyclobutylmethyl)(4-fluorophenyl)amino)cyclohexyl)(methyl)amino)-5-methyl-6-oxo-5,6-dihydro-1,5-naphthyridine-2,7-dicarbonitrile]	< 10 nM	100 to 1000 nM
COc1cc(F)ccc1N(C1CC1)[C@H]1CC[C@H](N(C)c2cc(=O)n(C)c3ccc(C#N)nc23)CC1 [Example 3V]	≥ 1000 nM	100 to 1000 nM
Cn1c(=O)cc(N(C)[C@H]2CC[C@@H](N(CC3CCC3)c3cc4c(cc3F)OCO4)CC2)c2nc(C#N)ccc21 [Example 161, cis-8-((-4-((cyclobutylmethyl)(6-fluorobenzo[d][1,3]dioxol-5-yl)amino)cyclohexyl)(methyl)amino)-5-methyl-6-oxo-5,6-dihydro-1,5-naphthyridine-2-carbonitrile]	< 10 nM	10 to 100 nM
CN1C(=O)COc2ccc(N(CC3CC3)[C@H]3CC[C@@H](N(C)c4c(C#N)c(=O)n(C)c5ccc(C#N)nc45)CC3)cc21 [Example 198, cis-8-((4-((cyclopropylmethyl)(4-methyl-3-oxo-3,4-dihydro-2H-benzo[b][1,4]oxazin-6-yl)amino)cyclohexyl)(methyl)amino)-5-methyl-6-oxo-5,6-dihydro-1,5-naphthyridine-2,7-dicarbonitrile]	≥ 1000 nM	≥ 1000 nM
Cn1c(=O)c(C#N)c(N(C)[C@H]2CC[C@@H](N(C[C@@H]3CCCOC3)c3ccc(F)cc3)CC2)c2nc(C#N)ccc21 [Example 69]	10 to 100 nM	10 to 100 nM
CC(C)CN(c1ccc(F)cc1)[C@H]1CC[C@@H](N(C)c2cc(=O)n(C)c3ccc(C#N)nc23)CC1 [Example 47, cis-8-((-4-((4-fluorophenyl)(isobutyl)amino)cyclohexyl)(methyl)amino)-5-methyl-6-oxo-5,6-dihydro-1,5-naphthyridine-2-carbonitrile]	10 to 100 nM	≥ 1000 nM
Cc1cc(F)cc(N(CC2CCC2)[C@H]2CC[C@@H](N(C)c3cc(=O)n(C)c4ccc(C#N)nc34)CC2)c1 [Example 114, cis-8-((-4-((cyclobutylmethyl)(3-fluoro-5-methylphenyl)amino)cyclohexyl)(methyl)amino)-5-methyl-6-oxo-5,6-dihydro-1,5-naphthyridine-2-carbonitrile]	10 to 100 nM	≥ 1000 nM
Cc1ccc(N(CC2CC2)[C@H]2CC[C@H](N(C)c3c(C#N)c(=O)n(C)c4ccc(C#N)nc34)CC2)cc1 [Example 128, trans-8-((-4-((cyclopropylmethyl)(p-tolyl)amino)cyclohexyl)(methyl)amino)-5-methyl-6-oxo-5,6-dihydro-1,5-naphthyridine-2,7-dicarbonitrile]	100 to 1000 nM	100 to 1000 nM
